Measured values: patent US8445503B2, “Inhibitors of polo-like kinase” (Elan Pharmaceuticals, Inc., priority 2009, dated 2013)
Where two headings read alike, the source gives them in different places.

Columns and labels:
Format in all cases: biochemical
GST-PLK1 = GST-PLK1 (Homo sapiens, UniProt P53350); assay: PLK TR-FRET peptide assay, PLK1; conditions: read-out: Plk1 IC50
GST-PLK2 = molecular target: T1, GST-PLK2 (Homo sapiens, UniProt Q9NYY3); assay: PLK TR-FRET peptide assay, PLK2; conditions: for IC50: PLK TR-FRET peptide assay, GST-PLK2, read-out: Plk2 IC50; for PLK2 activity relative to the opposite enantiomer / other isomer: comparison of resolved enantiomers, used to assign absolute configuration
T1 construct: purchased CarnaBio

GST-PLK3 = molecular target: T2, GST-PLK3 (Homo sapiens, UniProt Q9H4B4); assay: PLK TR-FRET peptide assay, PLK3; conditions: read-out: Plk3 IC50
T2 construct: purchased CarnaBio

[1] = PLK TR-FRET peptide assay, GST-PLK3

GST-PLK1, sequence (P53350 whole entry): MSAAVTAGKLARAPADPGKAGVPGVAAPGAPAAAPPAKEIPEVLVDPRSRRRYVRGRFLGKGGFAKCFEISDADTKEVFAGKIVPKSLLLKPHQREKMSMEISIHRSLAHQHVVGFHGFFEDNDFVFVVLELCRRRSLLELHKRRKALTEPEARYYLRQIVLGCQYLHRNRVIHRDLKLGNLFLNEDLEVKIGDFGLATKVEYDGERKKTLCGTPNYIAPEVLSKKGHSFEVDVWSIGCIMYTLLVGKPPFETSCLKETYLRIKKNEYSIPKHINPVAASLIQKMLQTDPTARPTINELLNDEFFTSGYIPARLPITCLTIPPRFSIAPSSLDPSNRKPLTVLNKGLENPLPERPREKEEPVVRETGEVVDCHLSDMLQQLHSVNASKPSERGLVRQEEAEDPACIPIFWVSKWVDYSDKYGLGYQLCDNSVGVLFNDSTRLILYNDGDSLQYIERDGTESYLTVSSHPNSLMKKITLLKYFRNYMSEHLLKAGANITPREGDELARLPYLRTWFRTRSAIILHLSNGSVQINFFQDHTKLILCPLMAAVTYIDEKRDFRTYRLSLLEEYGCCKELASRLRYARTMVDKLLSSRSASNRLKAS
T2 sequence (Q9H4B4 whole entry): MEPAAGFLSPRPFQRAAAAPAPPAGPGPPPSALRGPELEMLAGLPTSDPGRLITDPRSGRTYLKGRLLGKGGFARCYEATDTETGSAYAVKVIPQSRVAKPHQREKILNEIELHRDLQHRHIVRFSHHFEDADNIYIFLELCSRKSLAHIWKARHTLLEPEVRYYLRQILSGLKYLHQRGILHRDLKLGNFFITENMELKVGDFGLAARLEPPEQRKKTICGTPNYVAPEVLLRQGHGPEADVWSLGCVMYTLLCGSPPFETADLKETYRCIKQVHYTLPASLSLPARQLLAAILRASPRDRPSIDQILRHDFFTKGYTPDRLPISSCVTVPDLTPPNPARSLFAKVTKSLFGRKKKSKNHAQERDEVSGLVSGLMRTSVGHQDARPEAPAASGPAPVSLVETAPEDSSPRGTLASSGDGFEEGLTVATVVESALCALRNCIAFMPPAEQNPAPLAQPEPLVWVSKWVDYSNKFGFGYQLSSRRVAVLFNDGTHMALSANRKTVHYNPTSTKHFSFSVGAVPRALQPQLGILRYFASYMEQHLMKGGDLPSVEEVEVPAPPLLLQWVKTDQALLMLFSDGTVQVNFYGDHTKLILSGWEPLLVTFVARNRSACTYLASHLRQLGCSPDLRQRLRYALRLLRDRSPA
T1 sequence (Q9NYY3 whole entry): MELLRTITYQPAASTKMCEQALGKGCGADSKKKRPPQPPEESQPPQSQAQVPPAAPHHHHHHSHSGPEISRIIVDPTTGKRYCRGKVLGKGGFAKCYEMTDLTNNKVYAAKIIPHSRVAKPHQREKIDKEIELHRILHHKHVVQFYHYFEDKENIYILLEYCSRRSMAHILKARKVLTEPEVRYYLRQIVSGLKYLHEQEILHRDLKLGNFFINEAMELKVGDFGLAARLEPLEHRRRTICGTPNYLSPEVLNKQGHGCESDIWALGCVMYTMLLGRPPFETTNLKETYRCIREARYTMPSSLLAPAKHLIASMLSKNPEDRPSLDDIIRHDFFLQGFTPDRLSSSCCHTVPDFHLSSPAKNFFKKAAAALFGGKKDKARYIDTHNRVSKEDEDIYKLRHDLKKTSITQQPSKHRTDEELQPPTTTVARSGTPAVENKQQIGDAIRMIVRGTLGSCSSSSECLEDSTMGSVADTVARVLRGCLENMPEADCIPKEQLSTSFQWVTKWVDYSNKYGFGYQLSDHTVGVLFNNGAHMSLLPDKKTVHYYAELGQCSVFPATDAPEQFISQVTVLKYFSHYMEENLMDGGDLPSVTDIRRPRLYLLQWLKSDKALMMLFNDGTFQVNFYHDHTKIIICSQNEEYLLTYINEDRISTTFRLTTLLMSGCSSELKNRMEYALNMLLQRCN

Row | Compound | IC50 (GST-PLK1) [µM] | IC50 (GST-PLK2) [µM] | IC50 (GST-PLK3; [1]) [µM] | PLK2 activity relative to the opposite enantiomer / other isomer (GST-PLK2) | IC50 (GST-PLK3) [µM]
1 | CC[C@@H]1C(=O)N(C)c2cnc(-n3cnc(-c4cscn4)c3)nc2N1C1CCCC1 [Example 54, (R)-8-cyclopentyl-7-ethyl-5-methyl-2-(4-(thiazol-4-yl)-1H-imidazol-1-yl)-7,8-dihydropteridin-6(5H)-one] | < 1 | < 1 | 1 to 10 |  | 
2 | CC[C@@H]1C(=O)N(C)c2cnc(-n3cnc(C)c3)nc2N1C1CCCC1 [Example 55, (R)-8-cyclopentyl-7-ethyl-5-methyl-2-(4-methyl-1H-imidazol-1-yl)-7,8-dihydropteridin-6(5H)-one] | < 1 | < 1 | 10 to 50 |  | 
3 | CC[C@@]12COCCN1c1nc(-n3ccnc3-c3nccs3)ncc1N(C)C2=O [Example 387, (S)-6a-ethyl-5-methyl-2-(2-(thiazol-2-yl)-1H-imidazol-1-yl)-6a,7,9,10-tetrahydro-[1,4]oxazino[3,4-h]pteridin-6(5H)-one] | > 50 | < 1 | > 50 | more active compound | 
4 | CCC1C(=O)N(C)c2cnc(-n3ccnc3-c3ccc(F)cc3)nc2N1c1cnn(COCC[Si](C)(C)C)c1 (centres unmarked) [Example 342, 7-ethyl-2-(2-(4-fluorophenyl)-1H-imidazol-1-yl)-5-methyl-8-(1-((2-(trimethylsilyl)ethoxy)methyl)-1H-pyrazol-4-yl)-7,8-dihydropteridin-6(5H)-one] | 10 to 50 | < 1 | 1 to 10 |  | 
5 | CC[C@@H]1C(=O)N(C)c2cnc(-n3ccc4ccccc43)nc2N1C1CCCC1 [Example 385] |  |  | > 50 |  | 
6 | CCC1C(=O)N(C)c2cnc(-n3ccnc3-c3ccc(F)cc3)nc2N1c1ccccc1 (centres unmarked) [Example 291, 7-ethyl-2-(2-(4-fluorophenyl)-1H-imidazol-1-yl)-5-methyl-8-phenyl-7,8-dihydropteridin-6(5H)-one] | 1 to 10 | < 1 | 1 to 10 |  | 
7 | CC[C@]12COCCN1c1nc(-c3snnc3-c3ccccc3)ncc1N(C)C2=O [Example 369, (R)-6a-ethyl-5-methyl-2-(4-phenyl-1,2,3-thiadiazol-5-yl)-6a,7,9,10-tetrahydro-[1,4]oxazino[3,4-h]pteridin-6(5H)-one] | > 50 | > 50 | > 50 |  | 
8 | CC[C@@]12COCCN1c1nc(-c3snnc3-c3ccccc3)ncc1N(C)C2=O [Example 368, (S)-6a-ethyl-5-methyl-2-(4-phenyl-1,2,3-thiadiazol-5-yl)-6a,7,9,10-tetrahydro-[1,4]oxazino[3,4-h]pteridin-6(5H)-one] | > 50 | < 1 | 1 to 10 | more active compound | 
9 | CC[C@@H]1C(=O)N(C)c2cnc(-n3ccnc3-c3ccc(F)cc3)nc2N1C1CC(F)(F)C1 [Example 247] |  |  | 10 to 50 |  | 
10 | CC[C@@H]1C(=O)N(C)c2cnc(-c3ccncc3)nc2N1C1CCCC1 [Example 5, (R)-8-cyclopentyl-7-ethyl-5-methyl-2-(pyridin-4-yl)-7,8-dihydropteridin-6(5H)-one] | < 1 | < 1 | 10 to 50 |  | 
11 | CC[C@@H]1C(=O)N(C)c2cnc(-n3ccnc3-c3ccccn3)nc2N1C(C)C [Example 153, (R)-7-ethyl-8-isopropyl-5-methyl-2-(2-(pyridin-2-yl)-1H-imidazol-1-yl)-7,8-dihydropteridin-6(5H)-one] | 1 to 10 | < 1 | 1 to 10 |  | 
12 | CCC12CN(C)CCN1c1nc(-n3ccnc3-c3ccccc3)ncc1N(C)C2=O (racemic) [Example 371, 6a-ethyl-5,8-dimethyl-2-(2-phenyl-1H-imidazol-1-yl)-7,8,9,10-tetrahydro-5H-pyrazino[2,1-h]pteridin-6(6aH)-one] | > 50 | < 1 | > 50 |  | 
13 | CC[C@@H]1C(=O)N(C)c2cnc(-n3ccc(C(=O)N(C)C)n3)nc2N1C1CCCC1 [Example 61, (R)-1-(8-cyclopentyl-7-ethyl-5-methyl-6-oxo-5,6,7,8-tetrahydropteridin-2-yl)-N,N-dimethyl-1H-pyrazole-3-carboxamide] | 1 to 10 | 1 to 10 | 1 to 10 |  | 
14 | CC[C@@H]1C(=O)N(C)c2cnc(-n3nccc3-c3ccccc3)nc2N1C(C)C [Example 188, (R)-7-ethyl-8-isopropyl-5-methyl-2-(5-phenyl-1H-pyrazol-1-yl)-7,8-dihydropteridin-6(5H)-one] | < 1 | < 1 | 1 to 10 |  | 
15 | CC[C@@H]1C(=O)N(C)c2cnc(-n3ccnc3-c3cncnc3)nc2N1C(C)C [Example 149, (R)-7-ethyl-8-isopropyl-5-methyl-2-(2-(pyrimidin-5-yl)-1H-imidazol-1-yl)-7,8-dihydropteridin-6(5H)-one] | 10 to 50 | < 1 | 10 to 50 |  | 
16 | CC[C@@H]1C(=O)N(C)c2cnc(-n3ccnc3)nc2N1C1CCOC1 (single isomer, unassigned) [Example 299] | 1 to 10 | < 1 | 10 to 50 |  | 
17 | CCOC(=O)c1cnn(-c2ncc3c(n2)N(C2CCCC2)[C@H](CC)C(=O)N3C)c1 [Example 18, (R)-ethyl 1-(8-cyclopentyl-7-ethyl-5-methyl-6-oxo-5,6,7,8-tetrahydropteridin-2-yl)-1H-pyrazole-4-carboxylate] | < 1 | 1 to 10 | 10 to 50 |  | 
18 | CC[C@H]1C(=O)N(C)c2cnc(-n3ccnc3-c3ccc(F)cc3)nc2N1c1ccn(C)n1 [Example 408, (S)-7-ethyl-2-(2-(4-fluorophenyl)-1H-imidazol-1-yl)-5-methyl-8-(1-methyl-1H-pyrazol-3-yl)-7,8-dihydropteridin-6(5H)-one] | > 50 | 1 to 10 | > 50 |  | 

Row | Compound | IC50 (GST-PLK1) [µM] | IC50 (GST-PLK2) [µM] | IC50 (GST-PLK3; [1]) [µM] | PLK2 activity relative to the opposite enantiomer / other isomer (GST-PLK2) | IC50 (GST-PLK3) [µM]
19 | CC[C@@H]1C(=O)N(C)c2cnc(-n3ccnc3-c3ccncc3)nc2N1C1CC1 [Example 147, (R)-8-cyclopropyl-7-ethyl-5-methyl-2-(2-(pyridin-4-yl)-1H-imidazol-1-yl)-7,8-dihydropteridin-6(5H)-one] | > 50 | 1 to 10 | > 50 |  | 
20 | CC[C@@]12COCCN1c1nc(-c3cccnc3-c3ccccc3)ncc1N(C)C2=O [Example 403, (S)-6a-ethyl-5-methyl-2-(2-phenylpyridin-3-yl)-6a,7,9,10-tetrahydro-[1,4]oxazino[3,4-h]pteridin-6(5H)-one] | 10 to 50 | < 1 | 1 to 10 |  | 
21 | CC[C@@H]1C(=O)N(C)c2cnc(-n3ccnc3Br)nc2N1C1CCCC1 [Example 65, (R)-2-(2-bromo-1H-imidazol-1-yl)-8-cyclopentyl-7-ethyl-5-methyl-7,8-dihydropteridin-6(5H)-one] | < 1 | < 1 | 10 to 50 |  | 
22 | CC[C@@H]1C(=O)N(C)c2cnc(-n3ccnc3-c3ccccc3)nc2N1C1CCOC1 (some centres unmarked) [Example 182] |  |  | < 1 |  | 
23 | CC[C@@]12COCCN1c1nc(-n3ccnc3-c3ccccc3)ncc1NC2=O [Example 418, (S)-6a-ethyl-2-(2-phenyl-1H-imidazol-1-yl)-6a,7,9,10-tetrahydro-[1,4]oxazino[3,4-h]pteridin-6(5H)-one] |  |  |  | more active compound | 
24 | CC[C@@H]1C(=O)N(C)c2cnc(-c3cn[nH]c3-c3nccs3)nc2N1C1CCOCC1 [Example 349] |  |  | < 1 |  | 
25 | CC[C@@H]1C(=O)N(C)c2cnc(-c3ccnc(O)c3)nc2N1C1CCCC1 [Example 14, (R)-8-cyclopentyl-7-ethyl-2-(2-hydroxypyridin-4-yl)-5-methyl-7,8-dihydropteridin-6(5H)-one] | < 1 | < 1 |  |  | 
26 | CC[C@@H]1C(=O)N(C)c2cnc(-n3ccnc3-c3ccc(F)cc3)nc2N1CCC(F)(F)F [Example 233] |  |  | 10 to 50 |  | 
27 | CCC1C(=O)N(C)c2cnc(-n3ccnc3-c3ccc(F)cc3)nc2N1c1ccc(F)cc1 (centres unmarked) [Example 324] |  |  | 1 to 10 |  | 
28 | CC[C@@H]1C(=O)N(C)c2cnc(-n3ccnc3-c3ccc(F)cc3)nc2N1C1CCC(F)(F)C1 (some centres unmarked) [Example 242] |  |  | 1 to 10 |  | 
29 | CC[C@@H]1C(=O)N(C)c2cnc(N3CCN=C3c3ccccc3)nc2N1C(C)C [Example 246, (R)-7-ethyl-8-isopropyl-5-methyl-2-(2-phenyl-4,5-dihydro-1H-imidazol-1-yl)-7,8-dihydropteridin-6(5H)-one] |  |  |  |  | 1 to 10
30 | CC[C@@H]1C(=O)N(C)c2cnc(-c3cc[n+]([O-])cc3)nc2N1C1CCCC1 [Example 13, (R)-4-(8-cyclopentyl-7-ethyl-5-methyl-6-oxo-5,6,7,8-tetrahydropteridin-2-yl)pyridine 1-oxide] | 1 to 10 | 1 to 10 |  |  | 
31 | CC[C@@H]1C(=O)N(C)c2cnc(-c3cn[nH]c3)nc2N1C1CCCC1 [Example 7, (R)-8-cyclopentyl-7-ethyl-5-methyl-2-(1H-pyrazol-4-yl)-7,8-dihydropteridin-6(5H)-one] | < 1 | < 1 |  |  | 
32 | CN1C(=O)C(CC(F)(F)F)N(CCC(F)(F)F)c2nc(-n3ccnc3-c3ccc(F)cc3)ncc21 (centres unmarked) [Example 255] |  |  | 10 to 50 |  | 
33 | CC[C@@H]1C(=O)N(C)c2cnc(-n3ccnc3-c3ccccc3)nc2N1CCC(F)(F)F [Example 190] |  |  | 1 to 10 |  | 
34 | CC[C@@H]1C(=O)N(C)c2cnc(-n3cc(C(=O)NC)cn3)nc2N1C1CCCC1 [Example 40, (R)-1-(8-cyclopentyl-7-ethyl-5-methyl-6-oxo-5,6,7,8-tetrahydropteridin-2-yl)-N-methyl-1H-pyrazole-4-carboxamide] | < 1 |  | 10 to 50 |  | 
35 | CC[C@@]12CCCN1c1nc(-n3ccnc3-c3cccc(Br)c3)ncc1N(C)C2=O [Example 252] |  | < 1 |  |  | 
36 | CC[C@@H]1C(=O)N(C)c2cnc(-n3ccnc3-c3ccccc3)nc2N1C1CCOC1 (some centres unmarked) [Example 203] |  |  | 1 to 10 |  | 
